According to patent US7709024B2, “Sustained-release formulation and uses thereof” (Solvay Pharmaceuticals B.V., priority 2005, dated 2010):

How the values were obtained:
[1] = Comparative equilibrium solubility of salts of compound 1; details: pH listed with the equilibrium solubility
[2] = target: D2 receptors (Homo sapiens, UniProt P14416); details: therapeutic models, WO 01/14330; cited from earlier work
[3] = system: rodents; details: cited from earlier work
[4] = system: 5HT reuptake; details: therapeutic models, WO 01/14330; cited from earlier work
[5] = in vivo; cited from earlier work

D2 receptors, sequence (P14416 whole entry): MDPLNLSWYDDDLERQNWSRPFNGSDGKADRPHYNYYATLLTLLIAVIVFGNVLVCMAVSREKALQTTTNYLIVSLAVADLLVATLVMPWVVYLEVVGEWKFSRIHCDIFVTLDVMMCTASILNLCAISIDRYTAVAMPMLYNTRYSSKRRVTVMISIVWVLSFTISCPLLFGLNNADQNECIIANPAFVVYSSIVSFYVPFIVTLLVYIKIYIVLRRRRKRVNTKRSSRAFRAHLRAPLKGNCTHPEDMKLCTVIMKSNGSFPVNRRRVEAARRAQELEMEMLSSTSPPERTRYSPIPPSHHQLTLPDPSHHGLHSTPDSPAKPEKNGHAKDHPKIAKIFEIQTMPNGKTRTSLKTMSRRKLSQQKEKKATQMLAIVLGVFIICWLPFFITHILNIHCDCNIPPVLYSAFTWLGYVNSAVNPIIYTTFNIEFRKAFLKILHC

SMILES	pH ([1]; listed as glucuronate (2))	antagonistic activity at D2 receptors [2]	pH ([1]; listed as freebase (1))	propensity to induce catalepsy [3]	inhibitory activity against 5HT reuptake [4]	activity in therapeutic models sensitive to clinically relevant antipsychotics, antidepressants, anxiolytics, and Parkinson's disease [5]
CC1Oc2c(cccc2N2CCN(CCCc3c[nH]c4ccc(F)cc34)CC2)NC1=O (stereo not drawn) [compound 2]	4.25	–	–	–	–	–
CC1Oc2c(cccc2N2CCN(CCCc3c[nH]c4ccc(F)cc34)CC2)NC1=O (stereo not drawn) [compound 1, 8-{4-[3-(5-fluoro-1H-indol-3-yl)-propyl]-piperazin-1-yl}-2-methyl-4H-benzo[1,4]oxazin-3-one]	–	antagonistic activity at D2 receptors	4.72	low propensity to induce catalepsy	inhibitory activity against 5HT reuptake	active
